According to patent US11191738B2, “Use of tamoxifen for the treatment of cystic fibrosis in patients of both sexes” (GB PHARMA S.R.L., priority 2016, dated 2021):

Key:
[1] = tested on: Ca-dependent chloride channels; assay: patch clamp, perforated whole-cell configuration, chloride currents in CF bronchial epithelial cells; format: cell-based
Description: Our experiments were carried out on homozygous CFBE cells leading the F508del/F508 del mutation and on IB3-1 cells (immortalized cell line of bronchial epithelium cystic fibrosis cells, which bring F508del/W1282X mutation).
(§1) The chloride currents through the Ca-dependent chloride channels were measured using the patch clamp technique in perforated whole-cell configuration. The whole-cell configuration was obtained not by breaking the membrane below the electrode, but thanks to the action of an ionophore (gramicidin, 10 μg/ml) which, forming pores through the membrane, guarantees electrical continuity between the solution for the electrode and the cytoplasm, while maintaining the cellular integrity. Thus, cytoplasmic components that might be important to the maintenance of channel activity are not removed after dialysis of the cytoplasm with the solution contained in the electrode. […]
The solution for the electrode contained (mM): 145 KCl, 1 MgCl2, 10 HEPES, pH 7,25. […] The bath solution was hypertonic (measured osmolarity 337 mOsm) with respect to that of the electrode to inhibit the currents activated by swelling, present in the cells used also in isosmolarity conditions of the bath solution (as noted in previously carried out whole-cell experiments). […]

CFTR channel = target: T1, CFTR channel (Homo sapiens, UniProt P13569, DEL508-508); assay: patch clamp chloride currents in tamoxifen-treated cells with CFTR inhibitor; format: cell-based; details: cells treated with tamoxifen 5 μM for 24 hours, then tamoxifen + CFTR inh (FIG. 3)
T1 construct: having recorded the I/V in cells treated with tamoxifen for 24 hours; endogenous in cells; host or cells: CFBE (F508del/F508del) or IB3-1 (F508del/W1282X) cells
T1 sequence (P13569 with tags, fused parts or gaps DEL508-508): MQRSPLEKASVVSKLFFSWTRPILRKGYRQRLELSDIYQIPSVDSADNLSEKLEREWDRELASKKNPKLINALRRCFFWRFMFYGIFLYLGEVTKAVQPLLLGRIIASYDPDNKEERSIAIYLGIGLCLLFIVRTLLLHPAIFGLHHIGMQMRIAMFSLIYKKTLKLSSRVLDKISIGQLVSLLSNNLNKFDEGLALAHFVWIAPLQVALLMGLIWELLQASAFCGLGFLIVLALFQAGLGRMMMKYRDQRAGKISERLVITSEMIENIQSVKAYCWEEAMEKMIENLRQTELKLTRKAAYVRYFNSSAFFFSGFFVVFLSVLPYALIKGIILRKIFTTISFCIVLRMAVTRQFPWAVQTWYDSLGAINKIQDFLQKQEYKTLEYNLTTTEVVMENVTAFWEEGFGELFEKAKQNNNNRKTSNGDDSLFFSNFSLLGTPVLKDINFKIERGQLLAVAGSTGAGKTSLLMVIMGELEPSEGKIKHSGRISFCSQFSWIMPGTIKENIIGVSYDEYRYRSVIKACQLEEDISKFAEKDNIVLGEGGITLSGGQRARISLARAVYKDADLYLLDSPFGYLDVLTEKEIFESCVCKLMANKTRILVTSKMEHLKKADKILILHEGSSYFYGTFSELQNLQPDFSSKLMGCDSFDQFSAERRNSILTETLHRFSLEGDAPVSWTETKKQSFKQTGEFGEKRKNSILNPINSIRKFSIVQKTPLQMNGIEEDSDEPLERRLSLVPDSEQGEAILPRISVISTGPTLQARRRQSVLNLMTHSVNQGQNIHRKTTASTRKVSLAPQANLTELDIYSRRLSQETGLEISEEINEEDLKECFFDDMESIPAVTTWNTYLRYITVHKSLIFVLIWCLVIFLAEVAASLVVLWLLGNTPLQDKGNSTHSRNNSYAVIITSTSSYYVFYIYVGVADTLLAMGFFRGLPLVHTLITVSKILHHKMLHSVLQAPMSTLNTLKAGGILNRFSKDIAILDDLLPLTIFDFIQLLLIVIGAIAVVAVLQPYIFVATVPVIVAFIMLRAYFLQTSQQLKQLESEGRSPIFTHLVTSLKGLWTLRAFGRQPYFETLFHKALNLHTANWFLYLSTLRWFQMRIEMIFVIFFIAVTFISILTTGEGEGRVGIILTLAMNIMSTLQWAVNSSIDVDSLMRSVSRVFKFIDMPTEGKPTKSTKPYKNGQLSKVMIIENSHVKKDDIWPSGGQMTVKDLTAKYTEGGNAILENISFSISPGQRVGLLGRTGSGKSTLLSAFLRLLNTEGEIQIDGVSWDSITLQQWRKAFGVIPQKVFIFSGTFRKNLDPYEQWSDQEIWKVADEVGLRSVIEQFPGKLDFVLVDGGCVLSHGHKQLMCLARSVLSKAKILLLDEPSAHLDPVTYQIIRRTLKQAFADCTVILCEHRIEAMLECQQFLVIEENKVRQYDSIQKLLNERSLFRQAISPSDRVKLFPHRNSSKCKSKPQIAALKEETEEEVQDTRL
Description: as §1
The solution for the electrode contained (mM): 145 KCl, 1 MgCl2, 10 HEPES, pH 7,25. […] The bath solution was hypertonic (measured osmolarity 337 mOsm) with respect to that of the electrode to inhibit the currents activated by swelling, present in the cells used also in isosmolarity conditions of the bath solution (as noted in previously carried out whole-cell experiments).
Finally, in order to evaluate a possible action of tamoxifen on the CFTR channel, having recorded the I/V in cells treated with tamoxifen for 24 hours, the replacement of the solution with one containing tamoxifen and CFTR inh (specific inhibitor of CFTR) (FIG. 3) was carried out.

SMILES: CC/C(=C(\c1ccccc1)c1ccc(OCCN(C)C)cc1)c1ccccc1 [tamoxifen]
- current density compared to control conditions ([1]; CFBE or IB3-1 cells incubated 40 minutes with tamoxifen 5 μM (FIG. 1)): significantly increased
- effect on Ca-dependent chloride currents over time ([1]; cells incubated with 5 μM tamoxifen for 24 hours (FIG. 2)): remains almost unchanged over time
- effect on chloride currents in the presence of the inhibitor of CFTR (CFTR channel): does not change significantly
